Here are results for 15 compounds from patent US20220315554A1, “COMPOUNDS COMPRISING A […] LIGAND AND USE THEREOF” (priority 2019, published 2022).

Assay [1] deals with T1, FAP-expressing human WI-38 fibroblasts (Homo sapiens, UniProt Q12884).
T1 construct: FAP-expressing human WI-38 fibroblasts (ECACC) were cultured in EMEM; host or cells: WI-38 human fibroblasts
T1 sequence (Q12884 1-760): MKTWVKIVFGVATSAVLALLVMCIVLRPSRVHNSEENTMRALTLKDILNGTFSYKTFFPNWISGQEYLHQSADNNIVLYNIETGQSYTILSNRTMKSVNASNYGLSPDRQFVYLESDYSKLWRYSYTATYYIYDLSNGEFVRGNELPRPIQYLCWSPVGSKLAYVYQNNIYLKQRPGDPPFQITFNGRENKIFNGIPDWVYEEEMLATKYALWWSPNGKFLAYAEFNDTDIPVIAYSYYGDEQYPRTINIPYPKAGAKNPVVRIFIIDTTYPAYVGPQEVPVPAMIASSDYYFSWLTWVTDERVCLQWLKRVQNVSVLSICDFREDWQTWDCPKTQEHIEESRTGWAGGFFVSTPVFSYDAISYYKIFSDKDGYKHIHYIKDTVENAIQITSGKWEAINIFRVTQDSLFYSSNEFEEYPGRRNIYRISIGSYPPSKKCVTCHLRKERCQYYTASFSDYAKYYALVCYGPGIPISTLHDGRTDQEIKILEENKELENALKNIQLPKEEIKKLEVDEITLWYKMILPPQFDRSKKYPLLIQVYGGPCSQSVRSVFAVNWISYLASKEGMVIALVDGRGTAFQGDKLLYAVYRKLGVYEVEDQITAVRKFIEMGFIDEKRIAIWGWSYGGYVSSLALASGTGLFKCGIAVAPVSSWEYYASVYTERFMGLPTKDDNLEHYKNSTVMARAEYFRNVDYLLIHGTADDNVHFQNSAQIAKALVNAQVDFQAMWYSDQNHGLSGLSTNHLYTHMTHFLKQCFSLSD
The experiment in a line: Competitive FACS binding assay. The following applies: pIC50 Category (FACS), competition with 3 nM Cy5-labeled compound, 4° C., 1 hour. Here is the method:
Cells were analyzed in an Attune NxT flow cytometer. […]
On the technique in general: Flow cytometry measures light scatter and fluorescence of single cells or particles in a stream.

The target of assay [2] is T2, Human recombinant FAP (Homo sapiens, UniProt Q12884).
T2 sequence (Q12884 1-760): T1 sequence (Q12884 1-760)
The experiment in a line: FRET-based FAP protease activity assay. The assay is classed as biochemical. Set-up: purchased R&D systems 3715-SE. The settings on record: pIC50 Category (Activity), FRET substrate, 37° C.

Some results are limits rather than exact numbers.

In the case of `CCCCCC(=O)N[C@H]1CSCc2cc(CSCCNC(=O)CCC(=O)NCCCOCCOCCOCCCNC(=O)[C@H](CS)NC(=O)[C@H](CC(=O)O)NC(=O)[C@@H](N)CC(=O)O)cc(c2)CSC[C@@H](C(=O)O)NC(=O)[C@H](Cc2ccccc2)NC(=O)[C@H](CCC(N)=O)NC(=O)[C@H]([C@@H](C)O)NC(=O)[C@@H]2CCCN2C(=O)[C@@H]2CCCN2C1=O` [3BP-4302, Hex-[Cys-(tMeBn(H-Asp-Asp-Cys-Ttds-AET))-Pro-Pro-Thr-Gln-Phe-Cys]-OH], the figures for the 50% inhibitory concentration (IC50) in assay [1] and in assay [2] were 0.1 to 0.794 µM and 0.01 to 0.0794 µM, respectively.
Take `CCCCCC(=O)N[C@H]1CSCc2cc(CSCCNC(=O)[C@H](CS)NC(=O)[C@H](CC(=O)O)NC(=O)[C@@H](N)CC(=O)O)cc(c2)CSC[C@@H](C(=O)O)NC(=O)[C@H](Cc2ccccc2)NC(=O)[C@H](CCC(N)=O)NC(=O)[C@H]([C@@H](C)O)NC(=O)[C@@H]2CCCN2C(=O)[C@@H]2CCCN2C1=O` [3BP-4303, Hex-[Cys-(tMeBn(H-Asp-Asp-Cys-AET))-Pro-Pro-Thr-Gln-Phe-Cys]-OH]: the IC50 – broadly, the concentration at which inhibition is half-maximal – in assay [1] was 0.1 to 0.794 µM; in assay [2], 0.01 to 0.0794 µM.
`CCCCCC(=O)N[C@H]1CSCc2cc(CSCCNC(=O)CCOCCOCCOCCOCCOCCOCCNC(=O)[C@H](CO)NC(=O)[C@H](CO)NC(=O)[C@H](CO)NC(=O)CS)cc(c2)CSC[C@@H](C(=O)O)NC(=O)[C@H](Cc2ccccc2)NC(=O)[C@H](CCC(N)=O)NC(=O)[C@H]([C@@H](C)O)NC(=O)[C@@H]2CCCN2C(=O)[C@@H]2CCCN2C1=O` [3BP-4308, Hex-[Cys-(tMeBn(H-SAc-Ser-Ser-Ser-Ttds-AET))-Pro-Pro-Thr-Gln-Phe-Cys]-OH]: the IC50 in assay [1] and in assay [2] was 0.01 to 0.0794 µM each time.
As to `CCCCCC(=O)N[C@H]1CSCc2cc(CSCCNC(=O)CN(CCN(CCN(CC(=O)O)CC(=O)O)CC(=O)O)CC(=O)O)cc(c2)CSC[C@@H](C(=O)O)NC(=O)[C@H](Cc2ccccc2)NC(=O)[C@H](CCC(N)=O)NC(=O)[C@H]([C@@H](C)O)NC(=O)[C@@H]2CCCN2C(=O)[C@@H]2CCCN2C1=O` [3BP-4309, Hex-[Cys-(tMeBn(DTPA2-AET))-Pro-Pro-Thr-Gln-Phe-Cys]-OH], the IC50 in assay [1] and in assay [2] was 0.01 to 0.0794 µM each time.
Regarding `CCCCCC(=O)N[C@H]1CSCc2cc(CSCCNC(=O)CN3CCN(CC(=O)O)CCN(CC(=O)O)CC3)cc(c2)CSC[C@@H](C(=O)O)NC(=O)[C@H](Cc2ccccc2)NC(=O)[C@H](CCC(N)=O)NC(=O)[C@H]([C@@H](C)O)NC(=O)[C@@H]2CCCN2C(=O)[C@@H]2CCCN2C1=O` [3BP-4310, Hex-[Cys-(tMeBn(NOTA-AET))-Pro-Pro-Thr-Gln-Phe-Cys]-OH], the IC50 in assay [1] and in assay [2] was < 0.01 µM in each case.
Turning to `CCCCCC(=O)N[C@H]1CSCc2cc(CSCCNC(=O)c3ccc(NN)nc3)cc(c2)CSC[C@@H](C(=O)O)NC(=O)[C@H](Cc2ccccc2)NC(=O)[C@H](CCC(N)=O)NC(=O)[C@H]([C@@H](C)O)NC(=O)[C@@H]2CCCN2C(=O)[C@@H]2CCCN2C1=O` [3BP-4342, Hex-[Cys-(tMeBn(H-HYNIC-AET))-Pro-Pro-Thr-Gln-Phe-Cys]-OH], the IC50 in assay [1] is 0.01 to 0.0794 µM; in assay [2] it was < 0.01 µM.
In the case of `CCCCCC(=O)N[C@H]1CSCc2cc(CSCCNC(=O)CN3CCN4CCN(CC(=O)O)CCN(CC3)CC(=O)[O][Zn][O]C(=O)C4)cc(c2)CSC[C@@H](C(=O)O)NC(=O)[C@H](Cc2ccccc2)NC(=O)[C@H](CCC(N)=O)NC(=O)[C@H]([C@@H](C)O)NC(=O)[C@@H]2CCCN2C(=O)[C@@H]2CCCN2C1` [3BP-4343, Zink-Complex of Hex-[Cys(tMeBn(DOTA-AET))-Pro-Pro-Thr-Gln-Phe-Cys]-OH], the IC50 in assay [1] and in assay [2] was < 0.01 µM each time.
For `CCCCCC(=O)N[C@H]1CSCc2cc(CSCCNC(=O)CCC(=O)NCCCOCCOCCOCCCNC(=O)CN3CCN(CC(=O)O)CCN(CC(=O)O)CC3)cc(c2)CSC[C@@H](C(=O)O)NC(=O)[C@H](Cc2ccccc2)NC(=O)[C@H](CCC(N)=O)NC(=O)[C@H]([C@@H](C)O)NC(=O)[C@@H]2CCCN2C(=O)[C@@H]2CCCN2C1=O` [3BP-4344, Hex-[Cys-(tMeBn(NOTA-Ttds-AET))-Pro-Pro-Thr-Gln-Phe-Cys]-OH], the IC50 in assay [1] and in assay [2] was < 0.01 µM each time.
In the case of `CCCCCC(=O)N[C@H]1CSCc2cc(CSCCNC(=O)CCC(=O)NCCCOCCOCCOCCCNC(=O)CN(CCN(CCN(CC(=O)O)CC(=O)O)CC(=O)O)CC(=O)O)cc(c2)CSC[C@@H](C(=O)O)NC(=O)[C@H](Cc2ccccc2)NC(=O)[C@H](CCC(N)=O)NC(=O)[C@H]([C@@H](C)O)NC(=O)[C@@H]2CCCN2C(=O)[C@@H]2CCCN2C1=O` [3BP-4352, Hex-[Cys-(tMeBn(DTPA2-Ttds-AET))-Pro-Pro-Thr-Gln-Phe-Cys]-OH], the IC50 was in the range of 0.1 to 0.794 µM in assay [1] and 0.01 to 0.0794 µM in assay [2].
With `CCCCCC(=O)N[C@H]1CSCc2cc(CSCCNC(=O)CCOCCOCCOCCOCCOCCOCCNC(=O)CN(CCN(CCN(CC(=O)O)CC(=O)O)CC(=O)O)CC(=O)O)cc(c2)CSC[C@@H](C(=O)O)NC(=O)[C@H](Cc2ccccc2)NC(=O)[C@H](CCC(N)=O)NC(=O)[C@H]([C@@H](C)O)NC(=O)[C@@H]2CCCN2C(=O)[C@@H]2CCCN2C1=O` [3BP-4353, Hex-[Cys-(tMeBn(DTPA2-PEG6-AET))-Pro-Pro-Thr-Gln-Phe-Cys]-OH], the half-inhibitory concentration (IC50) in assay [1] and in assay [2] was 0.01 to 0.0794 µM throughout.
In the case of `CCCCCC(=O)N[C@H]1CSCc2cc(CSCCNC(=O)CCCC(=O)Nc3ccc(C[C@H](CN(CCN(CC(=O)O)CC(=O)O)CC(=O)O)N(CC(=O)O)CC(=O)O)cc3)cc(c2)CSC[C@@H](C(=O)O)NC(=O)[C@H](Cc2ccccc2)NC(=O)[C@H](CCC(N)=O)NC(=O)[C@H]([C@@H](C)O)NC(=O)[C@@H]2CCCN2C(=O)[C@@H]2CCCN2C1=O` [3BP-4366, Hex-[Cys-(tMeBn(DTPABzl-Glutar-AET))-Pro-Pro-Thr-Gln-Phe-Cys]-OH], the IC50 in assay [1] and in assay [2] was 0.1 to 0.794 µM each time.
Take `CCCCCC(=O)N[C@H]1CSCc2cc(CSCCNC(=O)CN3CCN4CCN5CCN(CC3)CC(=O)[O][Lu]([O]C(=O)C4)[O]C(=O)C5)cc(c2)CSC[C@@H](C(=O)N[C@@H](CC(=O)O)C(=O)NCCCC(=O)NC(CCCNC(=N)N)C(=O)NCCCOCCOCCOCCCNC(=O)CCC(=O)NC(CCCCNC(=O)c2ccc(-c3c4ccc(=N)c(S(=O)(=O)O)c-4oc4c(S(=O)(=O)O)c(N)ccc34)c(C(=O)O)c2)C(N)=O)NC[C@H](Cc2ccccc2)NC(=O)[C@H](CCC(N)=O)NC(=O)C([C@@H](C)O)NC(=O)[C@@H]2CCCN2C(=O)[C@@H]2CCCC2C1=O` (stereo partly drawn) [3BP-4372, Hex-[Cys(tMeBn(LuDOTA-AET))-Pro-Pro-Thr-Gln-Phe-Cys]-Asp-Gab-Arg-Ttds-Lys(AF488)-NH2]: the 50% inhibitory concentration (IC50) in assay [1] and in assay [2] was < 0.01 µM throughout.
As to `CCCCCC(=O)N[C@H]1CSCc2cc(CSCCNC(=O)CN3CCN4CCN5CCN(CC3)CC(=O)[O][Lu]([O]C(=O)C4)[O]C(=O)C5)cc(c2)CSC[C@@H](C(=O)N[C@@H](CC(=O)O)C(=O)NCCCC(=O)N[C@@H](CCCNC(=N)N)C(=O)NCCCOCCOCCOCCCNC(=O)CCC(=O)NCCCOCCOCCOCCCNC(=O)CCC(=O)NCCCOCCOCCOCCCNC(=O)CCC(=O)N[C@@H](CCCCNC(=O)c2ccc(-c3c4ccc(=N)c(S(=O)(=O)O)c-4oc4c(S(=O)(=O)O)c(N)ccc34)c(C(=O)O)c2)C(N)=O)NC[C@H](Cc2ccccc2)NC(=O)[C@H](CCC(N)=O)NC(=O)C([C@@H](C)O)NC(=O)[C@@H]2CCCN2C(=O)[C@@H]2CCCC2C1=O` (stereo partly drawn) [3BP-4373, Hex-[Cys(tMeBn(LuDOTA-AET))-Pro-Pro-Thr-Gln-Phe-Cys]-Asp-Gab-Arg-Ttds-Ttds-Ttds-Lys(AF488)-NH2], the results for the IC50 in assay [1] and in assay [2] were 0.01 to 0.0794 µM and < 0.01 µM, respectively.
In the case of `CCCCCC(=O)N[C@H]1CSCc2cc(CSCCNC(=O)CCC(=O)NCCCOCCOCCOCCCNC(=O)c3ccc(NN)nc3)cc(c2)CSC[C@@H](C(=O)O)NC(=O)[C@H](Cc2ccccc2)NC(=O)[C@H](CCC(N)=O)NC(=O)[C@H]([C@@H](C)O)NC(=O)[C@@H]2CCCN2C(=O)[C@@H]2CCCN2C1=O` [3BP-4376, Hex-[Cys-(tMeBn(H-HYNIC-Ttds-AET))-Pro-Pro-Thr-Gln-Phe-Cys]-OH], the concentration for half-maximal inhibition (IC50) in assay [1] and in assay [2] was < 0.01 µM in each case.
Consider `CCCCCC(=O)N[C@H]1CSCc2cc(CSCCNC(=O)CN3CCN(CC(=O)O)CCN(CC(=O)O)Cc4cccc(n4)C3)cc(c2)CSC[C@@H](C(=O)O)NC(=O)[C@H](Cc2ccccc2)NC(=O)[C@H](CCC(N)=O)NC(=O)[C@H]([C@@H](C)O)NC(=O)[C@@H]2CCCN2C(=O)[C@@H]2CCCN2C1=O` [3BP-4379, Hex-[Cys-(tMeBn(PCTA-AET))-Pro-Pro-Thr-Gln-Phe-Cys]-OH], for which the 50% inhibitory concentration (IC50) in assay [1] and in assay [2] was < 0.01 µM in each case.
